In US20120035244A1, “PARP1 TARGETED THERAPY” (THE REGENTS OF THE UNIVERSITY OF MICHIGAN, priority 2010, published 2012):

Legend:
MDA-MB-231 (BRCA1/2 WT) = assay: CAM xenograft tumors, MDA-MB-231; assay type: in vivo, chicken embryo; conditions: Olaparib treatment
Description: The CAM assay was performed as described previously (Zijlstra, A., et al., Cancer research 62, 7083-7092 (2002)). Briefly, fertilized eggs were incubated in a rotary humidified incubator at 38° C. with for 10 days. After releasing the CAM by applying mild amount of low pressure to the hole over the air sac and cutting a square 1-cm^2 window encompassing a second hole near the allantoic vein, cultured human cells that had been pre-treated with siRNA as indicated were detached by trypsinization and re-suspended in complete medium prior to implantation of 2×10^6 cells adjacent to the mesenchyme in each egg. The windows were subsequently, sealed and the eggs were returned to a stationary incubator. Cells were then treated as indicated with 40 mg/kg body weight Olaparib which was administered on day 13, 15 and 17. Day 18 embryos were sacrificed. Tumors were then excised and weighed. […] After incubation of either the metastasis or intravasation assays, the extra-embryonic tumor and CAM, as well as the embryonic liver were harvested and analyzed for the presence of tumor cells by quantitative human alu-specific PCR. […] Quantification of human cells in the extracted DNA was done as described^14. Fluorogenic TaqMan qPCR probes were applied as above, and DNA copy numbers were quantified.

VCaP cells = assay: γ-H2A.X immunofluorescence, VCaP cells; assay type: cell-based, human; conditions: Olaparib for 48 hours
Description: Cells were seeded at 25,000 cells/mL in 4-well chamber slide 24 hours prior to the addition of siRNA or drug as indicated. Merbarone (Sigma) was dissolved in DMSO and stored at 4° C. Cells were then washed once in PBS, fixed for 15 minutes in 100% methanol, washed in PBS, permeabilized for 5 minutes in PBS containing 0.2% Triton-X, washed twice in PBS, blocked for 30 minutes in PBS containing 0.5% donkey serum (Sigma, St. Louis, Mo.), held for 45 minutes in PBS containing 0.5% donkey serum and primary antibody: anti-γ-H2A.X mouse monoclonal (Millipore Cat #05-636), anti-γ-H2A.X rabbit polyclonal (Cell Signaling, Cat #9719, Danvers, Mass.), and anti-53BP1 rabbit polyclonal (Cell Signaling, Cat #4937, Danvers, Mass.) washed 3 times with PBS, held for 30 minutes in PBS containing 0.5% donkey serum and secondary antibody: Alexa Fluor 488-anti-Mouse (Invitrogen) or Alexa Fluor 594-anti-Rabbit (Invitrogen). Cells were then stained with DAPI for 5 minutes and slides were mounted 12 hours prior to analysis using Vectashield (Vector laboratories, Burlingame, Calif.). Images were taken using 100× oil lens on an Olympus Confocal microscope at the University of Michigan microscopy imaging lab.

O=C(c1cc(Cc2n[nH]c(=O)c3ccccc23)ccc1F)N1CCN(C(=O)C2CC2)CC1 [Olaparib, 4-[3-(4-Cyclopropanecarbonylpiperazine-1-carbonyl)-4-fluorobenzyl]-2H-phthalazin-1-one]
effect on tumors (MDA-MB-231 (BRCA1/2 WT)): no measurable effect
γ-H2A.X foci (VCaP cells): very high level of γ-H2A.X foci
